Activity calls are given as the source filed them. The calls are words filed in the database; no cut-off is given here.
Legend:
[1] = biological target: T1, Ectonucleotide pyrophosphatase/phosphodiesterase family member 1 (Homo sapiens, UniProt P22413); test: Inhibition of recombinant human ENPP1 using cGAMP as substrate assessed as inhibition of cGAMP hydrolysis preincubated for 5 to 10 mins followed by substrate addition and measured after 90 mins by AMP-Glo reagent based luminescence plate reader analysis
T1 sequence (P22413 whole entry): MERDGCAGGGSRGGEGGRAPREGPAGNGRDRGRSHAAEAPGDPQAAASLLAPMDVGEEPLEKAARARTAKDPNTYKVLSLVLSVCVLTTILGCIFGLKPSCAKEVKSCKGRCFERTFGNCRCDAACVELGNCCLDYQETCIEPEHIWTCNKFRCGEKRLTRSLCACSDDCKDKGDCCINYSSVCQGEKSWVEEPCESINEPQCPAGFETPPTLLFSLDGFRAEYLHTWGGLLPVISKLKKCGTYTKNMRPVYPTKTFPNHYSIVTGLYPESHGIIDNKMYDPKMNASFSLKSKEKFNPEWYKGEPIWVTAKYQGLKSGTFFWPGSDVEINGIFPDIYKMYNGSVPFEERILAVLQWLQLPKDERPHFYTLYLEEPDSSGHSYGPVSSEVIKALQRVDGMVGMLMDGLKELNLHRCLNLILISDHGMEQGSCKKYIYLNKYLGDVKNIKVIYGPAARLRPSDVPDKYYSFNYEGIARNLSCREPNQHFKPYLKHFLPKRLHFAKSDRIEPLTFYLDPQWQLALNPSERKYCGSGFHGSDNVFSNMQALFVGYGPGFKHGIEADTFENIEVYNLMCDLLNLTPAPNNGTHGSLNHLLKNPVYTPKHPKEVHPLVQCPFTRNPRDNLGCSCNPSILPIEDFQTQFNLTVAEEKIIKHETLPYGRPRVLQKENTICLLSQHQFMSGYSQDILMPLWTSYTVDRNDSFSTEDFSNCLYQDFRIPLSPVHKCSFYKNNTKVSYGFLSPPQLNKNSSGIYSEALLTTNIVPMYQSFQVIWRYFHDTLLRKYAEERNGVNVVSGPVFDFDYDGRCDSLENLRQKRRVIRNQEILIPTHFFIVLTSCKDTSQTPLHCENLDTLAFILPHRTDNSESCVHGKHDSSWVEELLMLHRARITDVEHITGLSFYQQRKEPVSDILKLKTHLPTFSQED

[2] = biological target: Stimulator of interferon genes protein (Homo sapiens) (UniProt Q86WV6); test: (§1) Activation of STING-mediated immune response in human HCT-116 cells transfected with ISRE reporter assessed as increase in cGAMP-induced ISRE activation at 25 to 100 uM preincubated with compound for 1 hrs followed by cGAMP addition and measured after 48 hrs by luciferase reporter gene assay; format: cell-based; conditions: filed as activator, dose 25-100 µM, time 49.0 hrs
[3] = biological target: Stimulator of interferon genes protein (Homo sapiens) (UniProt Q86WV6); test: as §1, with “activation by measuring fold change” for “activation”; format: cell-based; conditions: filed as activator, dose 25-100 µM, time 49.0 hrs
[4] = biological target: Stimulator of interferon genes protein (Homo sapiens) (UniProt Q86WV6); test: as §1, with “activation by measuring fold change” for “activation”, “at” for “at 25 to”; format: cell-based; conditions: filed as activator, time 49.0 hrs

Chain of Stimulator of interferon genes protein (Homo sapiens) (Q86WV6 whole entry): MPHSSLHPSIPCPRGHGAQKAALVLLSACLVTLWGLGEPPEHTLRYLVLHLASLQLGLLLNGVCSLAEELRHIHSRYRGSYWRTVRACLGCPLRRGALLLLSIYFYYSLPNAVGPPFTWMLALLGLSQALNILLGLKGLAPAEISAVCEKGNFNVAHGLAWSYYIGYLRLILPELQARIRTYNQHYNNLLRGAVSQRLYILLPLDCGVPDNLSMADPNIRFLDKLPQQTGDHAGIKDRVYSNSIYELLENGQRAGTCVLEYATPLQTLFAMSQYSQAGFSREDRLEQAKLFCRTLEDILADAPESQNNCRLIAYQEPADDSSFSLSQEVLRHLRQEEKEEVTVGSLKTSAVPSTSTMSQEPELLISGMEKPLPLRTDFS

| IC50 [1] [µM] | Activity [2] | fold change (FC) [3] | fold change (FC) [4] | SMILES |
| --- | --- | --- | --- | --- |
| 0.59 |  |  |  | COc1ccc2c(-c3ccc(CNS(N)(=O)=O)cc3)n[nH]c(=O)c2c1 |
| 0.298 | Active |  |  | NS(=O)(=O)Nc1ccc(Cc2n[nH]c(=O)c3ccccc23)cc1F |
| 1.14 |  |  |  | NS(=O)(=O)NCc1ccc(-c2nn(-c3ccccc3)c(=O)c3ccccc23)cc1 |
| 0.166 | Active |  |  | COc1cc2c(Cc3ccc(N(C)S(N)(=O)=O)cc3)n[nH]c(=O)c2cc1OC |
| 1.31 |  |  |  | COc1ccc2c(=O)n(C)nc(-c3ccc(CNS(N)(=O)=O)cc3)c2c1 |
| 0.039 |  | 1.85 |  | NS(=O)(=O)Nc1ccc(Cc2n[nH]c(=O)c3ccccc23)cc1 |
| 1.81 |  |  |  | Cn1nc(-c2ccc(CCS(N)(=O)=O)cc2)c2ccccc2c1=O |
| 0.273 | Active |  |  | NS(=O)(=O)Nc1ccc(Cc2n[nH]c(=O)c3ccccc23)c(F)c1 |
| 2.22 |  |  |  | Cn1nc(-c2ccc3c(c2)CCN(S(N)(=O)=O)C3)c2ccccc2c1=O |
| 2.19 |  |  |  | NS(=O)(=O)Nc1ccc(Cc2n[nH]c(=O)c3ccccc23)cc1C(F)(F)F |
| 0.037 |  |  | 1.07 | COc1cc2c(-c3ccc(CNS(N)(=O)=O)cc3)n[nH]c(=O)c2cc1OC |
| 0.247 | Active |  |  | COc1cc2c(Cc3ccc(N(C)S(N)(=O)=O)cc3)nn(C)c(=O)c2cc1OC |
| 0.139 |  |  | 1.71 | NS(=O)(=O)NCc1ccc(-c2n[nH]c(=O)c3ccccc23)cc1 |
| 0.377 |  |  |  | NS(=O)(=O)NCc1ccc(-c2n[nH]c(=O)c3ccccc23)cc1C(F)(F)F |
| 0.118 | Active |  |  | COc1cc2c(Cc3ccc(NS(N)(=O)=O)cc3)nn(C)c(=O)c2cc1OC |
| 0.069 |  | 2.49 |  | COc1cc2c(Cc3ccc(NS(N)(=O)=O)cc3)n[nH]c(=O)c2cc1OC |
| 1.45 |  |  |  | NS(=O)(=O)NCc1ccc(-c2nn(Cc3ccccc3)c(=O)c3ccccc23)cc1 |
| 0.286 |  |  | 1.75 | Cn1nc(-c2ccc(CNS(N)(=O)=O)cc2)c2ccccc2c1=O |
| 0.441 |  |  |  | NS(=O)(=O)NCC1CCN(c2n[nH]c(=O)c3ccccc23)CC1 |
| 1.36 |  |  |  | NS(=O)(=O)Nc1ccc(Cc2n[nH]c(=O)c3ccccc23)c(C(F)(F)F)c1 |
| 0.395 |  |  |  | COc1cc2c(N3CCC(CNS(N)(=O)=O)CC3)n[nH]c(=O)c2cc1OC |
| 1.14 |  |  |  | CN(c1ccc(Cc2n[nH]c(=O)c3ccccc23)cc1)S(N)(=O)=O |
| 2.45 |  |  |  | Cn1nc(N2CCC(CNS(N)(=O)=O)CC2)c2ccccc2c1=O |
| 0.454 |  |  |  | COc1cc2c(N3CCC(CNS(N)(=O)=O)CC3)nn(C)c(=O)c2cc1OC |
| 0.21 |  | 1.53 |  | COc1cc2c(Cc3ccc4c(c3)CCN4S(N)(=O)=O)n[nH]c(=O)c2cc1OC |
| 0.207 |  | 3.23 |  | COc1cc2c(Cc3ccc4c(c3)CCN4S(N)(=O)=O)nn(C)c(=O)c2cc1OC |

— ChEMBL document CHEMBL5370672, “Discovery of Orally Bioavailable Phthalazinone Analogues as an ENPP1 Inhibitor for STING-Mediated Cancer Immunotherapy” (J Med Chem, 2023)
